Counter-ions that a name gives are not always drawn. Like-named read-outs stand apart in the source and are kept apart here.
Columns and labels:
HT-29 cells = experiment: Hoechst/propidium iodide cell death assay in HT-29; assay type: cell-based, human; conditions: for cytotoxicity at 20 µM: Homo sapiens
Text: (§1) A high-content imaging system (PerkinElmer; Operetta CLS), was used to quantify cell death and apoptosis by calculating the number of propidium iodide-positive cells relative to Hoechst-positive cells, and the number of Annexin V-positive cells relative to Hoechst-positive cells, respectively.

NIH-3T3 cells = experiment: Hoechst/propidium iodide cell death assay in NIH-3T3; assay type: cell-based; conditions: for cytotoxicity at 20 µM: Mus musculus, NIH3T3, 24 h
Text: as §1

[1] = target: T1, 14-3-3ζ:BAD-112-136F interactions (Homo sapiens, UniProt P63104); experiment: BRET sensor screen for disruption of 14-3-3ζ-Rluc8:BAD-112-136F-mCitrine in living NIH-3T3 cells; assay type: cell-based, murine; design: inhibition: dose or concentration left out as unconfirmed; BRET reduction on NIH-3T3: unit not given here; conditions: for inhibition / inhibition at 20 µM: NIH3T3, 3 h
T1 construct: expressed in transfected cells; host or cells: NIH-3T3 fibroblasts, bi-directional pBI-CMV1 plasmid
T1 sequence (P63104 1-245): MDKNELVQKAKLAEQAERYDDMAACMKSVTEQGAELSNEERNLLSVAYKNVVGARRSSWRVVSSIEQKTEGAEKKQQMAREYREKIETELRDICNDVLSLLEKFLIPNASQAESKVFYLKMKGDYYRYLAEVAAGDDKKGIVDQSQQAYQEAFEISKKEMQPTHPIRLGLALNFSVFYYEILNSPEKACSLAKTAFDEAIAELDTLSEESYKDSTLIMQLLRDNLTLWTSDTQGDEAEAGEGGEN
Protocol: The Z’-score, which evaluates the robustness of an HTS assay readout, was calculated according to standard protocols. For the HTS, 384-well plates were coated with 100 μg/mL poly-L-ornithine (Sigma, Missouri, United States; #P3655) overnight at 37 °C, followed by rinsing with sterilized water. NIH-3T3 cells were transfected with the BRET sensor two days prior to experimentation, followed by replating onto the pre-coated 384-well plates at a density of 20,000 cells/well. After 24 h of incubation at 37 °C, growth media was replaced by Krebs buffer (pH 7.4).

[2] = HT-29, 24 h, 20 µM, 24 h, read-out: Percentage of cell death % 24h HT-29
[3] = HT-29, 48 h, HT-29, 48h, 20 μM, read-out: Percentage of cell death % 48h, HT-29
[4] = 20 µM, 24 h, read-out: Percentage of cell death % 24h NIH3t3
[5] = NIH-3T3 cells, hits from the primary screen, read-out: BRET reduction on NIH-3T3
[6] = NIH-3T3 expressing BRET sensor, 20 µM, 3 h, read-out: BRET reduction on NIH-3T3
[7] = NIH-3T3 cells, hits from the primary screen
[8] = NIH-3T3 expressing BRET sensor, 20 µM, 3 h

Molecule	cytotoxicity at 20 µM (HT-29 cells; [2])	cytotoxicity at 20 µM (HT-29 cells; [3])	cytotoxicity at 20 µM (NIH-3T3 cells; [4])	Percentage of cell death % 48h, NIH3T3 (NIH-3T3 cells)	inhibition [1, 5]	inhibition at 20 µM [1, 6]	inhibition at 20 µM [1, 5]	cytotoxicity at 20 µM (HT-29 cells; HT-29, 24 h, read-out: Percentage of cell death % 24h HT-29, 20 µM, 24 h)	cytotoxicity at 20 µM (HT-29 cells; HT-29, 48 h, read-out: Percentage of cell death % 48h, HT-29, HT-29, 48h, 20 μM)	cytotoxicity at 20 µM (NIH-3T3 cells; read-out: Percentage of cell death % 24h NIH3t3, 20 µM, 24 h)	inhibition at 20 µM ([1]; read-out: BRET reduction on NIH-3T3, NIH-3T3 cells, hits from the primary screen)	inhibition at 20 µM ([1]; read-out: BRET reduction on NIH-3T3, NIH-3T3 expressing BRET sensor, 20 µM, 3 h)	Percentage of cell death % 24h HT-29 (HT-29 cells; 20 µM, 24 h)	Percentage of cell death % 48h, HT-29 (HT-29 cells; HT-29, 48h, 20 μM)	Percentage of cell death % 24h NIH3t3 (NIH-3T3 cells; 20 µM, 24 h)	BRET reduction on NIH-3T3 [1, 7]	BRET reduction on NIH-3T3 [1, 8]
Clc1ccc(C(Cn2ccnc2)OCc2csc3c(Cl)cccc23)c(Cl)c1 (stereo not drawn) [Sertaconazole nitrate]	2.46%	4.64%	4.15%	10.0161%	46.8%	46.8%	–	–	–	–	–	–	–	–	–	–	–
C[C@@H](O[C@H]1OCCN(Cc2n[nH]c(=O)[nH]2)[C@H]1c1ccc(F)cc1)c1cc(C(F)(F)F)cc(C(F)(F)F)c1 [Aprepitant]	1.47%	3.76%	1.15%	2.577%	26.6%	26.6%	–	–	–	–	–	–	–	–	–	–	–
Clc1ccc(CCC(Cn2ccnc2)Sc2c(Cl)cccc2Cl)cc1 (stereo not drawn) [Butoconazole nitrate]	1.75%	3.36%	1.23%	1.36%	45.1%	45.1%	–	–	–	–	–	–	–	–	–	–	–
C=C1/C(=C\C=C2/CCC[C@]3(C)[C@@H]([C@H](C)/C=C/[C@@H](O)C4CC4)CC[C@@H]23)C[C@@H](O)C[C@@H]1O [Calcipotriol]	0.559%	0.922%	0.552%	2.028%	31.7%	31.7%	–	–	–	–	–	–	–	–	–	–	–
COc1cc(C(=O)NS(=O)(=O)c2ccccc2C)ccc1Cc1cn(C)c2ccc(NC(=O)OC3CCCC3)cc12 [Zafirlukast]	0.343%	0.917%	0.402%	0.2485%	30.4%	30.4%	–	–	–	–	–	–	–	–	–	–	–
COc1cc2c(Oc3ccc4[nH]c(C)cc4c3F)ncnc2cc1OCCCN1CCCC1 [Cediranib (AZD217), Cediranib]	11.9%	83.5%	76.9%	55.3041%	39.9%	39.9%	–	–	–	–	–	–	–	–	–	–	–
CC/C(=C(/CC)c1ccc(O)cc1)c1ccc(O)cc1 [Diethylstilbestrol]	0.869%	2.76%	11.2%	3.653%	28.3%	28.3%	–	–	–	–	–	–	–	–	–	–	–
O=C1Cc2cc(CCN3CCN(c4nsc5ccccc45)CC3)c(Cl)cc2N1 [Ziprasidone hydrochloride monohydrate]	1.29%	1.87%	1.15%	0.2764%	25.5%	25.5%	–	–	–	–	–	–	–	–	–	–	–
CN(C)c1ccc(C(=C2C=CC(=[N+](C)C)C=C2)c2ccc(N(C)C)cc2)cc1 [Crystal Violet]	94.9%	95.4%	94.3%	91.1305%	75.6%	75.6%	–	–	–	–	–	–	–	–	–	–	–
CCN1CCN(c2cc(-c3ccc(F)cc3)c3c(n2)CCCCCC3)CC1 [Blonanserin]	2.57%	15.5%	1.45%	1.273%	25.1%	25.1%	–	–	–	–	–	–	–	–	–	–	–
CC/C(=C(\c1ccccc1)c1ccc(OCCN(C)C)cc1)c1ccccc1 [Tamoxifen Citrate]	5.86%	63.3%	76.5%	76.3192%	51.8%	51.8%	–	–	–	–	–	–	–	–	–	–	–
Clc1ccc(C(Cn2ccnc2)OCc2ccsc2Cl)c(Cl)c1 (stereo not drawn) [Tioconazole]	2.22%	5.98%	7.78%	3.795%	–	27.3%	27.3%	–	–	–	–	–	–	–	–	–	–
COc1cc2ncnc(Nc3ccc(F)c(Cl)c3)c2cc1NC(=O)/C=C/CN1CCCCC1 [Dacomitinib (PF299804, PF299), Dacomitinib]	22.7%	84.1%	86.8%	75.5856%	26.7%	26.7%	–	–	–	–	–	–	–	–	–	–	–
CCOc1nc2cccc(C(=O)OC(C)OC(=O)OC3CCCCC3)c2n1Cc1ccc(-c2ccccc2-c2nnn[nH]2)cc1 (stereo not drawn) [Candesartan Cilexetil]	1.16%	1.91%	12.2%	2.478%	44.9%	44.9%	–	–	–	–	–	–	–	–	–	–	–
CN(C)CCCN1c2ccccc2CCc2ccc(Cl)cc21 [Clomipramine HCl]	0.662%	2.3%	7.72%	8.7601%	27%	27%	–	–	–	–	–	–	–	–	–	–	–
Clc1ccc(C(Cn2ccnc2)OCc2ccc(Sc3ccccc3)cc2)c(Cl)c1 (stereo not drawn) [Fenticonazole Nitrate]	0.786%	1.58%	0.773%	1.538%	31.7%	31.7%	–	–	–	–	–	–	–	–	–	–	–
Cn1cncc1[C@@](N)(c1ccc(Cl)cc1)c1ccc2c(c1)c(-c1cccc(Cl)c1)cc(=O)n2C [Tipifarnib (Zarnestra), Tipifarnib]	–	–	–	52.702%	–	–	–	3.09%	12.9%	65.9%	43.9%	43.9%	–	–	–	–	–
Clc1ccc(COC(Cn2ccnc2)c2ccc(Cl)cc2Cl)c(Cl)c1 (stereo not drawn) [Miconazole Nitrate]	–	–	–	6.033%	–	–	–	–	–	–	–	–	5.26%	9.591%	12.1676%	52.8386	52.8386
Vitamin B12	–	–	–	0.1179%	–	–	–	–	–	–	–	–	0.4615%	1.059%	0.2976%	36.7374	36.7374
CC(C)=CCC/C(C)=C/CC/C(C)=C/CSc1ccccc1C(=O)O [Salirasib]	0.693%	1.28%	3.71%	1.2519%	45.5%	45.5%	–	–	–	–	–	–	–	–	–	–	–
CCOC(=O)C1=C(C)NC(C)=C(C(=O)OC)C1c1cccc(Cl)c1Cl (stereo not drawn) [Felodipine]	3.81%	6.71%	6.69%	43.2531%	27.6%	27.6%	–	–	–	–	–	–	–	–	–	–	–
Clc1ccccc1C(c1ccccc1)(c1ccccc1)n1ccnc1 [Clotrimazole]	0.234%	0.787%	0.937%	1.657%	30.1%	30.1%	–	–	–	–	–	–	–	–	–	–	–
CCCCCCCCCCCCCCCC[N+](C)(C)CCN(Cc1ccc(OC)cc1)c1ncccn1 [Thonzonium Bromide]	94.9%	94.7%	86.2%	80.9399%	38.3%	38.3%	–	–	–	–	–	–	–	–	–	–	–
CCc1c(Cl)c(O)c(Cl)c(O)c1C(=O)O[C@H]1[C@H](O)[C@H](OC)[C@H](OC/C2=C\C=C\C[C@H](O)/C(C)=C/[C@H](CC)[C@@H](O[C@@H]3OC(C)(C)[C@@H](OC(=O)C(C)C)[C@H](O)[C@@H]3O)/C(C)=C/C(C)=C/C[C@@H]([C@@H](C)O)OC2=O)O[C@@H]1C [Fidaxomicin]	2.31%	52.8%	1.82%	1.5823%	32.5%	32.5%	–	–	–	–	–	–	–	–	–	–	–
